Experimental findings from patent publication US20170283804A1, “ANTISENSE COMPOUNDS AND USES THEREOF” (Ionis Pharmaceuticals, Inc., priority 2014, published 2017) are described below.

Oligonucleotides are written 5' to 3', each unit as a sugar letter and its base; * is a phosphorothioate linkage, no mark a phosphodiester; rarer units and linkages stand in square brackets, end groups in braces. Plain capitals give the bases only. e = 2'-O-(2-methoxyethyl) (MOE); k = constrained ethyl (cEt); [5mC] = 5-methylcytosine; d = 2'-deoxy (DNA)

Data set [1] concerns mouse Metastasis associated lung adenocarcinoma transcript 1 (Malat-1). The experiment in a line: In vivo activity of Isis No. 556062 with and without FTY-720 pre-treatment (Malat-1 RNA in tissues, Example 2). Particulars: mice. From the text:
Isis No. 556062 targets the mouse Metastasis associated lung adenocarcinoma transcript 1 (Malat-1, GENBANK accession number NR_002847.2, SEQ ID NO: 3). The sequence of Isis No. 556062 is 5′-GGCTTAATGCAGCATT-3′ (SEQ ID NO: 4). It is a 3-10-3 (S)-cEt gapmer, wherein the three nucleosides at the 5′-end and the three nucleosides at the 3′-end comprise 2′-O—CH(CH3)-4′ modifications, and the ten middle nucleosides are 2′-deoxynucleosides. All internucleoside linkages are phosphorothioate linkages. The cytosine bases are 5-methylcytosines.
Malat-1 RNA levels were determined using real-time PCR and RIBOGREEN® RNA quantification reagent (Molecular Probes, Inc. Eugene, OR) according to standard protocols. Malat-1 RNA levels were determined relative to total RNA (using Ribogreen), prior to normalization to PBS-treated control. The results are presented in Table 16 as average Malat-1 RNA levels for each treatment group. Results for groups that received Isis No. 556062 alone are relative the group that received only PBS, and results for groups that received Isis No. 556062 and FTY-720 are relative to the group that received 3 mg/kg FTY-720 and PBS in place of Isis No. 556062.

For data set [2] the test system is unchanged. The experiment in a line: In vivo dose response of Isis No. 556062 with and without FTY-720 pre-treatment (Malat-1 RNA, Example 3). Particulars: mice; liver; 1 mg/kg FTY-720 i.p. once a day for 11 days; Isis No. 556062 subcutaneous on day 10. How it is done: Each treatment group consisted of 4 animals.
Malat-1 RNA levels were determined as described in Example 2. The results are presented in Table 18 as average Malat-1 RNA levels for each treatment group. Results for groups that received Isis No. 556062 alone are relative the group that received only PBS, and results for groups that received Isis No. 556062 and 1 mg/kg FTY-720 are relative to the group that received 1 mg/kg FTY-720 and PBS in place of Isis No. 556062.

Data set [3] has as its system mouse Scavenger Receptor Class B, Number 1 (SRB-1) transcript. The experiment in a line: Isis No. 353382 activity in MHT cells with or without bioactive lipid pre-treatment (SRB-1 mRNA, real-time PCR). Type of data set: cell-based. An excerpt:
Antisense oligonucleotides were synthesized using standard solid phase oligonucleotide synthetic methods. Isis No. 353382 targets the mouse Scavenger Receptor Class B, Number 1 (SRB-1) transcript (GENBANK accession number NM_016741.1, SEQ ID NO: 1). The sequence of Isis No. 353382 is 5′-[…]-3′ (SEQ ID NO: 2). It is a 5-10-5 MOE gapmer, wherein the five nucleosides at the 5′-end and the five nucleosides at the 3′-end comprise 2′-methoxyethyl (MOE) modifications, and the ten middle nucleosides are 2′-deoxynucleosides. All internucleoside linkages are phosphorothioate linkages. The cytosine bases are 5-methylcytosines.
In order to test the effect of pre-treatment with bioactive lipids on Isis No. 353382 activity in vitro, mouse hepatocellular SV40 large T-antigen (MHT) carcinoma cells were treated with 200 nM myriocin or 3 μM FTY-720 was added 2 hours before Isis No. 353382 at the concentrations shown in Tables 1 and 2 below. Cells were lysed 24 hours following oligonucleotide addition, and total RNA was purified. SRB-1 mRNA levels were determined using real-time PCR and RIBOGREEN® RNA quantification reagent (Molecular Probes, Inc. Eugene, Oreg.) according to standard protocols.
For orientation: Real-time PCR tracks product formation cycle by cycle.

For the compound `CCCCCCCCc1ccc(CCC(N)(CO)CO)cc1` [FTY-720, 2-amino-2-[2-(4-octylphenyl)ethyl]propane-1,3-diol, reference compound], the “Effect of pre-treatment on the effect of Isis No. 556062 in vivo” value in data set [1] (liver and fat, FTY-720 0.3, 1 or 3 mg/kg i.p. once a day for 11 days, Isis No. 556062 i.p. on day 10) is “potentiated the effect of Isis No. 556062”; in data set [2] it was “potentiated the effect of Isis No. 556062”. Also, the “Effect of pre-treatment on the effect of Isis No. 353382 in vitro” value in data set [3] (3 μM FTY-720 2 hours before Isis No. 353382) is given as “potentiated the effect of Isis No. 353382”.
Consider “Isis No. 353382: 5-10-5 MOE gapmer 5′-GCTTCAGTCATGACTTCCTT-3′ (SEQ ID NO: 2), all phosphorothioate linkages, 5-methylcytosines; targets mouse SRB-1 transcript (antisense eG*e[5mC]*eT*eT*e[5mC]*dA*dG*dT*d[5mC]*dA*dT*dG*dA*d[5mC]*dT*eT*e[5mC]*e[5mC]*eT*eT)”, for which the “Average SRB-1 mRNA level in cells receiving 200 nM myriocin” value in data set [3] (0.16 nM Isis No. 353382, 200 nM myriocin added 2 hours before, 24 hours) is 73.5 % control; in data set [3] (0.64 nM Isis No. 353382, 200 nM myriocin added 2 hours before, 24 hours), 73.2 % control; in data set [3] (3.2 nM Isis No. 353382, 200 nM myriocin added 2 hours before, 24 hours), 46.8 % control; in data set [3] (16 nM Isis No. 353382, 200 nM myriocin added 2 hours before, 24 hours) it was 36.1 % control; in data set [3] (80 nM Isis No. 353382, 200 nM myriocin added 2 hours before, 24 hours) it was 27.2 % control; in data set [3] (400 nM Isis No. 353382, 200 nM myriocin added 2 hours before, 24 hours), 23.5 % control. Also, the “Average SRB-1 mRNA level in cells receiving 200 nM myriocin” value worked out at 19.6 % control in data set [3] (2,000 nM Isis No. 353382, 200 nM myriocin added 2 hours before, 24 hours) and 15.6 % control in data set [3] (10,000 nM Isis No. 353382, 200 nM myriocin added 2 hours before, 24 hours). Further, the “Average SRB-1 mRNA level in cells receiving 3 μM FTY-720” value is on record as 85.5 % control in data set [3] (0.16 nM Isis No. 353382, 3 μM FTY-720 added 2 hours before, 24 hours); 77.8 % control in data set [3] (0.64 nM Isis No. 353382, 3 μM FTY-720 added 2 hours before, 24 hours); 65.9 % control in data set [3] (3.2 nM Isis No. 353382, 3 μM FTY-720 added 2 hours before, 24 hours); 46.5 % control in data set [3] (16 nM Isis No. 353382, 3 μM FTY-720 added 2 hours before, 24 hours); 27.1 % control in data set [3] (80 nM Isis No. 353382, 3 μM FTY-720 added 2 hours before, 24 hours); 23.6 % control in data set [3] (400 nM Isis No. 353382, 3 μM FTY-720 added 2 hours before, 24 hours). The “Average SRB-1 mRNA level in cells receiving 3 μM FTY-720” value was found to be 16.8 % control in data set [3] (2,000 nM Isis No. 353382, 3 μM FTY-720 added 2 hours before, 24 hours) and 12.1 % control in data set [3] (10,000 nM Isis No. 353382, 3 μM FTY-720 added 2 hours before, 24 hours). The “Average SRB-1 mRNA level in cells receiving no pre-treatment” value in data set [3] (0.16 nM Isis No. 353382, 24 hours, no pre-treatment) worked out at 96.9 % control; in data set [3] (0.16 nM Isis No. 353382, no pre-treatment, 24 hours), 91.8 % control; in data set [3] (0.64 nM Isis No. 353382, 24 hours, no pre-treatment), 95.9 % control; in data set [3] (0.64 nM Isis No. 353382, no pre-treatment, 24 hours), 87.8 % control; in data set [3] (3.2 nM Isis No. 353382, 24 hours, no pre-treatment), 72.2 % control; in data set [3] (3.2 nM Isis No. 353382, no pre-treatment, 24 hours), 80.9 % control. The “Average SRB-1 mRNA level in cells receiving no pre-treatment” value is 46.3 % control in data set [3] (16 nM Isis No. 353382, 24 hours, no pre-treatment); 74.3 % control in data set [3] (16 nM Isis No. 353382, no pre-treatment, 24 hours); 32.3 % control in data set [3] (80 nM Isis No. 353382, 24 hours, no pre-treatment); 53.5 % control in data set [3] (80 nM Isis No. 353382, no pre-treatment, 24 hours); 26.8 % control in data set [3] (400 nM Isis No. 353382, 24 hours, no pre-treatment); 52.2 % control in data set [3] (400 nM Isis No. 353382, no pre-treatment, 24 hours). The “Average SRB-1 mRNA level in cells receiving no pre-treatment” value in data set [3] (2,000 nM Isis No. 353382, 24 hours, no pre-treatment) is given as 22.4 % control; in data set [3] (2,000 nM Isis No. 353382, no pre-treatment, 24 hours), 44.9 % control; in data set [3] (10,000 nM Isis No. 353382, 24 hours, no pre-treatment), 16.6 % control; in data set [3] (10,000 nM Isis No. 353382, no pre-treatment, 24 hours), 36.0 % control.
Turning to “Isis No. 556062: 3-10-3 (S)-cEt gapmer 5′-GGCTTAATGCAGCATT-3′ (SEQ ID NO: 4), all phosphorothioate linkages, 5-methylcytosines; targets mouse Malat-1 (antisense kG*kG*k[5mC]*dT*dT*dA*dA*dT*dG*d[5mC]*dA*dG*d[5mC]*kA*kT*kT)”, the “Average Malat-1 RNA” value in data set [1] (Fat, 2 mg/kg Isis No. 556062 i.p., 0 mg/kg FTY-720) was found to be 89 % control; in data set [1] (Fat, 2 mg/kg Isis No. 556062 i.p., 0.3 mg/kg FTY-720 i.p. daily), 54 % control; in data set [1] (Fat, 2 mg/kg Isis No. 556062 i.p., 1 mg/kg FTY-720 i.p. daily), 69 % control; in data set [1] (Fat, 2 mg/kg Isis No. 556062 i.p., 3 mg/kg FTY-720 i.p. daily), 45 % control; in data set [1] (Fat, 10 mg/kg Isis No. 556062 i.p., 0 mg/kg FTY-720), 63 % control; in data set [1] (Fat, 10 mg/kg Isis No. 556062 i.p., 0.3 mg/kg FTY-720 i.p. daily), 39 % control. Moreover, the “Average Malat-1 RNA” value in data set [1] (Fat, 10 mg/kg Isis No. 556062 i.p., 1 mg/kg FTY-720 i.p. daily) is listed as 32 % control; in data set [1] (Fat, 10 mg/kg Isis No. 556062 i.p., 3 mg/kg FTY-720 i.p. daily), 39 % control; in data set [1] (Liver, 2 mg/kg Isis No. 556062 i.p., 0 mg/kg FTY-720), 36 % control; in data set [1] (Liver, 2 mg/kg Isis No. 556062 i.p., 0.3 mg/kg FTY-720 i.p. daily) it was 30 % control; in data set [1] (Liver, 2 mg/kg Isis No. 556062 i.p., 1 mg/kg FTY-720 i.p. daily), 23 % control; in data set [1] (Liver, 2 mg/kg Isis No. 556062 i.p., 3 mg/kg FTY-720 i.p. daily) it was 24 % control. In addition, the “Average Malat-1 RNA” value in data set [1] (Liver, 10 mg/kg Isis No. 556062 i.p., 0 mg/kg FTY-720) was 12 % control; in data set [1] (Liver, 10 mg/kg Isis No. 556062 i.p., 0.3 mg/kg FTY-720 i.p. daily), 9 % control; in data set [1] (Liver, 10 mg/kg Isis No. 556062 i.p., 1 mg/kg FTY-720 i.p. daily), 7 % control; in data set [1] (Liver, 10 mg/kg Isis No. 556062 i.p., 3 mg/kg FTY-720 i.p. daily) it was 10 % control.
